Measurements taken from patent US20100120798A1, “SUBSTITUTED PIPERIDINES CONTAINING A HETEROARYLAMIDE OR HETEROARYLPHENYL MOIETY” (ASTEX THERAPEUTICS LIMITED, priority 2006, published 2010).

How the values were obtained:
[1] = In vitro MDA-MB-468 human breast adenocarcinoma GSK-3 phosphorylation assay; type: cell-based; settings: mean IC50, MDA-MB-468 cells, 2 hours with compound, phospho-GSK-3β
Text: This assay determines the ability of test compounds to inhibit phosphorylation of Serine-9 residue in Glycogen Synthase Kinase-3beta (GSK-3β) as a surrogate marker of cellular PKB (Akt) activity, as assessed using Acumen Explorer Fluorescent Plate-Reader technology. A MDA-MB-468 human breast adenocarcinoma cell line (LGC Promochem, Teddington, Middlesex, UK, Catalogue No. HTB-132) was routinely maintained in Dulbecco's modified Eagle's growth medium (DMEM; Invitrogen Limited, Paisley, UK Catalogue No. 11966-025) containing 10% heat-inactivated foetal calf serum (FCS; Sigma, Poole, Dorset, UK, Catalogue No. F0392) and 1% L-glutamine (Gibco, Catalogue No. 25030-024) at 37° C. with 5% CO2 up to a confluency of 70-90%.
For the phosphorylation assay, the cells were detached from the culture flask using Trypsin-EDTA (Invitrogen Limited, Catalogue No. 25300-062) and seeded into the wells of a black transparent-bottom Corning Costar Polystyrene 96 well plate (Fisher Scientific UK, Loughborough, Leicestershire, UK; Catalogue No. 3904 and DPS-130-020K) at a density of 5000 cells per well in 100 μl of complete growth media. The cells were incubated overnight at 37° C. with 5% CO2 to allow them to adhere.
On day 2, the cells were treated with test compounds and incubated for 2 hours at 37° C. with 5% CO2. Test compounds were prepared as 10 mM stock solutions in DMSO and dosed directly to required concentration into test wells using non-contact (acoustic dispensing of multiple 2.5 nl droplets directly into assay wells) ECHO dosing technology (Labcyte Inc. Sunnyvale, Calif., USA). Each plate contained control wells without test compound.
20 μl of fixing buffer (Phosphate Buffered Saline (PBS) containing 10% formaldehyde; Sigma; Catalogue No. F1635) was then added to each well to give a final well concentration 1.6%. Plates were then incubated for 30 minutes at room temperature prior to the fixative being removed. Each well was washed once with 250 μl of PBS and then 50 μl PBS added to each well. PBS was then aspirated and cells permeabilised and blocked by incubating each well with 50 μl of permeabilisation/blocking buffer (PBS containing 0.5% Tween 20 (Sigma; Catalogue No. P5927) and 5% Marvel Milk Powder (Andrews Pharmacy Ltd, Macclesfield, Cheshire, UK; Catalogue No. APC100199)) for 1 hour at room temperature prior to staining.
Following removal of Perm/Block buffer, 50 μl of primary anti-phospho-GSK-3β antibody (Cell Signalling Technology (New England Biolabs (Uk) Ltd.), Hitchin, Hertfordshire, UK; Catalogue No. 9336 diluted 1:400 in Blocking buffer (PBS containing 5% Marvel and 0.05% Tween/Polysorbate 20) was added to each well and incubated overnight at 4° C.
Each well was washed three times in 250 μl of wash buffer (PBS containing 0.05% polysorbate 20), and cells incubated for 1 hour at room temperature with 50 μl of secondary fluorescently-labelled anti-rabbit Alexa Fluor 488 antibody (Molecular Probes, Invitrogen Limited, Catalogue No. A11008) diluted 1:750 in blocking buffer. Plates were washed three times in 250 μl of wash buffer and stored containing 50 μl of PBS at 4° C. until required.
Plates were analysed using an Acumen Explorer Plate-reader to quantify level of fluorescent signal that represents quantity of phosphorylated-GSK-3β.
IC50 calculation—IC50 is the concentration of compound required to give 50% effect over the range of activity affected by the compound, between maximum (no compound) and minimum (excess level of compound) response control data. IC50 values were determined by fitting background corrected, dose response assay data to a 4 parameter logistic curve fit equation model with the minimum response set to zero. This was done using an in-house developed algorithm within the Origin graphing software package (OriginLab Corporation, Northampton, Mass., USA). […]

[2] = target: hERG K+ ion channel (Homo sapiens, UniProt Q12809); test: hERG activity; type: cell-based; settings: assay of Bridgland-Taylor et al.; read-out: IC50 against hERG K+ ion channel
Chain of hERG K+ ion channel (Q12809 whole entry): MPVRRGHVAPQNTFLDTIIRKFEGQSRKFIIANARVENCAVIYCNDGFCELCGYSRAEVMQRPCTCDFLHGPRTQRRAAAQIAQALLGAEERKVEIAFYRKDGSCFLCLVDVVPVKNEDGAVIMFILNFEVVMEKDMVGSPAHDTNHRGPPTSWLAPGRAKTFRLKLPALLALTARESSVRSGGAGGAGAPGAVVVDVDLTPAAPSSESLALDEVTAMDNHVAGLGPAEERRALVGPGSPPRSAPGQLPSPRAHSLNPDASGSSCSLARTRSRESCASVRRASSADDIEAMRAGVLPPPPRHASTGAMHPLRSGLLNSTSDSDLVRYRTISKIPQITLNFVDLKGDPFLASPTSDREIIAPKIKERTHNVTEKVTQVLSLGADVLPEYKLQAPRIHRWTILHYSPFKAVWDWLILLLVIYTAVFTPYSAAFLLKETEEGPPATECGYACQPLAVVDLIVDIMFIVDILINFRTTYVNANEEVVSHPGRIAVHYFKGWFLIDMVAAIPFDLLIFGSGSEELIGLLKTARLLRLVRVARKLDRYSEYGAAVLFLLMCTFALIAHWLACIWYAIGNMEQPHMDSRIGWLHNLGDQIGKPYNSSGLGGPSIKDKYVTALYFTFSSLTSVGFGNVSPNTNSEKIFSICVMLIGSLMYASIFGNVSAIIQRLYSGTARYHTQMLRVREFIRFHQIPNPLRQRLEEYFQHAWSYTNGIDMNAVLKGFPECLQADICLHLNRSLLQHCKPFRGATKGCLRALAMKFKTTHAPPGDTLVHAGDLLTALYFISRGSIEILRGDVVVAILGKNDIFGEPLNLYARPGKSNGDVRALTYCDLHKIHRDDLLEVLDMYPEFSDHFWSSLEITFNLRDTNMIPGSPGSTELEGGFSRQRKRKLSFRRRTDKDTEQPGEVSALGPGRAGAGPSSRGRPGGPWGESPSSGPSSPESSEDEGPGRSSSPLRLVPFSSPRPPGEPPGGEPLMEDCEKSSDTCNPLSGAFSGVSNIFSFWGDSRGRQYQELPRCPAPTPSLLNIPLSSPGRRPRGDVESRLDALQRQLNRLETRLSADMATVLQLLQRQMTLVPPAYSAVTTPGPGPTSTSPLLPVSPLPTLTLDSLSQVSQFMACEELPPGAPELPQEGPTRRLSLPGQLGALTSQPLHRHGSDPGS
Text: The activity of compounds of the invention against the hERG K^+ ion channel can be determined using the assay described in the article by M. H. Bridgland-Taylor et al., Journal of Pharmcaological and Toxicological Methods, 54 (2006), 189-199.

IC50 [1] [µM] | SMILES | IC50 [2] [µM]
0.059 | NCC1(C(=O)NCc2ccc(Cl)nc2)CCN(c2ncnc3[nH]ccc23)CC1 [Example 1, 4-Aminomethyl-1-(7H-pyrrolo[2,3-d]pyrimidin-4-yl)-piperidine-4-carboxylic acid (6-chloro-pyridin-3-ylmethyl)-amide] | > 32
0.88 | NC1(C(=O)NCc2ccc(Cl)nc2)CCN(c2ncnc3[nH]ccc23)CC1 [Example 4, 4-Amino-1-(7H-pyrrolo[2,3-d]pyrimidin-4-yl)-piperidine-4-carboxylic acid (6-chloro-pyridin-3-ylmethyl)amide] | > 32
